Laboratory results from patent publication US6498166B1, “Pyrazolopyridines” (SmithKline Beecham Corporation, priority 1999, dated 2002).

What was measured:
human COX-1 = target: T1, human COX-1 (Homo sapiens, UniProt P23219); test: Inhibition of PGE2 release in COS cells stably transfected with human COX-1; assay type: cell-based; conditions: COS cells transfected with human COX-1; 1 hour preincubation, 30 μM arachidonic acid for 15 minutes, PGE2 by enzyme immunoassay
T1 construct: expressed in transfected cells; host or cells: COS cells (stably transfected)
T1 sequence (P23219 24-599): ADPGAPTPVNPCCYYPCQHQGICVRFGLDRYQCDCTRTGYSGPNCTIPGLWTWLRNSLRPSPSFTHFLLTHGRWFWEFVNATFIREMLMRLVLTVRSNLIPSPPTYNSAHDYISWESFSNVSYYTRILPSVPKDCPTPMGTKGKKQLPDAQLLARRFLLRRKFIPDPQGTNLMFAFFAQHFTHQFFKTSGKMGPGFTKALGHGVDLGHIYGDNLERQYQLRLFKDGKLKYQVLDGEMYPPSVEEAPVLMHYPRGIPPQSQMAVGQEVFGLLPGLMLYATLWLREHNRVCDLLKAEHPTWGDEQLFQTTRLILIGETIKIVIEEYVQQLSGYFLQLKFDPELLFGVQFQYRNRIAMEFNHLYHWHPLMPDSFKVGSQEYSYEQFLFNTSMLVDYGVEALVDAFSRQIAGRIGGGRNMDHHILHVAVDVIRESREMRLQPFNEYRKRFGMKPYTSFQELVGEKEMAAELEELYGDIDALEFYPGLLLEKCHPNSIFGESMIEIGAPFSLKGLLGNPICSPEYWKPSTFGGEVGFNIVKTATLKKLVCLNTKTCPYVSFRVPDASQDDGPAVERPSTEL
Protocol: (§1) Inhibitory activity against human COX-1 and COX-2 was assessed in COS cells which had been stably transfected with cDNA for human COX-1 and human COX-2. 24 Hours prior to experiment, COS cells were transferred from the 175 cm^2 flasks in which they were grown, onto 24-well cell culture plates using the following procedure. The incubation medium (Dulbecco's modified eagles medium (DMEM) supplemented with heat-inactivated foetal calf serum (10% v/v), penicillin (100 IU/ml), streptomycin (100μg/ml) and geneticin (600 μg/ml)) was removed from a flask of confluent cells (1 flask at confluency contains approximately 1×10^7 cells). 10 ml of phosphate buffered saline (PBS) was added to the flask to wash the cells. Having discarded the PBS, cells were then rinsed in 10 ml trypsin for 20 seconds, after which the trypsin was removed and the flask placed in an incubator (37°) for 1-2 minutes until cells became detached from the flask. The flask was then removed from the incubator and cells resuspended in 10 ml of fresh incubation medium. The contents of the flask was transferred to a 250 ml sterile container and the volume of incubation medium subsequently made up to 100 ml. 1 ml cell suspension was pipetted into each well of 4×24-well cell culture plates. The plates were then placed in an incubator (37° C., 95% air/5% CO2) overnight. If more than 1 flask of cells were required, the cells from the individual flasks were combined before being dispensed into the 24-well plates.
(§2) Following the overnight incubation, the incubation medium was completely removed from the 24-well cell culture plates and replaced with 250 μl fresh DMEM (37° C.). The test compounds were made up to 250× the required test concentration in DMSO and were added to the wells in a volume of 1 μl. Plates were then mixed gently by swirling and then placed in an incubator for 1 hour (37° C., 95% air/5% CO2). Following the incubation period, 10 μl of arachidonic acid (750 μM) was added to each well to give a final arachidonic acid concentration of 30 μM. Plates were then incubated for a further 15 minutes, after which the incubation medium was removed from each well of the plates and stored at −20° C., prior to determination of prostaglandin E2 (PGE2) levels using enzyme immunoassay. The inhibitory potency of the test compound was expressed as an IC50 value, which is defined as the concentration of the compound required to inhibit the PGE2 release from the cells by 50%. The selectivity ratio of inhibition of COX-1 versus COX-2 was calculated by comparing respective IC50 values. The following IC50 values for inhibition of COX-2 and COX-1 were obtained for compounds of the invention: […]

human COX-2 = target: T2, human COX-2 (Homo sapiens, UniProt P35354); test: Inhibition of PGE2 release in COS cells stably transfected with human COX-2; assay type: cell-based; conditions: COS cells transfected with human COX-2; 1 hour preincubation, 30 μM arachidonic acid for 15 minutes, PGE2 by enzyme immunoassay
T2 construct: expressed in transfected cells; host or cells: COS cells (stably transfected)
T2 sequence (P35354 18-604): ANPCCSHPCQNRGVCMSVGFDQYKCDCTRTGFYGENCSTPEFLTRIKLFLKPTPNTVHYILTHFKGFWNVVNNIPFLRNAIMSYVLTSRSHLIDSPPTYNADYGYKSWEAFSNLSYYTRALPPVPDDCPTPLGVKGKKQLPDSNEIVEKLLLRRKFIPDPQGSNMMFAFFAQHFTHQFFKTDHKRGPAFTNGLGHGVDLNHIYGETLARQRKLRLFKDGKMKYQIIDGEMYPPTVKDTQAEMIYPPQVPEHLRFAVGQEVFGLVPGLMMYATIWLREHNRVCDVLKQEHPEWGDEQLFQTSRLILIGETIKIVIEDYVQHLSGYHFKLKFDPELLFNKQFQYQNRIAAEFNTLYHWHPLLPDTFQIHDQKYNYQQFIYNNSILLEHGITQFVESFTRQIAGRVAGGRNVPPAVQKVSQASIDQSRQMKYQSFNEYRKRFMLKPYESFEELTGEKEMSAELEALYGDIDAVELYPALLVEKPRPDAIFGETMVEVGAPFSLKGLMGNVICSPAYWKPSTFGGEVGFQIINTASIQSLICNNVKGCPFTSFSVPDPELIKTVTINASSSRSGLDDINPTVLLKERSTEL
Protocol: as §1, §2

Row | SMILES | IC50 (human COX-1) | IC50 (human COX-2)
1 | CS(=O)(=O)c1ccc(-c2c(-c3ccc(F)cc3)nn3cc(Br)ccc23)cc1 [4(iii), 6-Bromo-2-(4-fluorophenyl)-3-[4-(methylsulfonyl)phenyl]pyrazolo[1,5-a]pyridine] | > 100000 nM | 5 nM
2 | CS(=O)(=O)c1ccc(-c2c(-c3ccc(F)cc3)nn3cc(C#N)ccc23)cc1 [Example 2, 2-(4-Fluorophenyl)-3-[4-(methylsulfonyl)phenyl]pyrazolo[1,5-a]pyridine-6-carbonitrile] | > 100000 nM | 12 nM
3 | NS(=O)(=O)c1ccc(-c2c(-c3ccc(F)cc3)nn3cc(Br)ccc23)cc1 [Example 3(vi), 4-[6-Bromo-2-(4-fluorophenyl)pyrazolo[1,5-a]pyridin-3-yl]benzenesulfonamide] | 6760 nM | 1 nM
4 | NS(=O)(=O)c1ccc(-c2c(-c3ccc(F)cc3)nn3cc(Cl)ccc23)cc1 [Example 5(vi), 4-[6-Chloro-2-(4-fluorophenyl)pyrazolo[1,5-a]pyridin-3-yl]benzenesulfonamide] | 20900 nM | 21 nM

Next, values leading:

Row | IC50 (human COX-1) | IC50 (human COX-2) | SMILES
5 | > 100000 nM | 5 nM | NS(=O)(=O)c1ccc(-c2c(-c3ccccc3)nn3cc(Cl)ccc23)cc1 [8(iii), 4-[6-Chloro-2-phenyl-pyrazolo[1,5-a]pyridin-3-yl]benzenesulfonamide]
6 | 20900 nM | 21 nM | N#Cc1ccc2c(-c3ccc(S(N)(=O)=O)cc3)c(-c3ccc(F)cc3)nn2c1 [Example 1(iv), 4-[6-Cyano-2-(4-fluorophenyl)pyrazolo[1,5-a]pyridin-3-yl]benzenesulfonamide]
7 | > 100000 nM | 12 nM | CCOc1ccc(-c2nn3cc(Cl)ccc3c2-c2ccc(S(N)(=O)=O)cc2)cc1 [Example 6, 4-[6-Chloro-2-(4-ethoxyphenyl)pyrazolo[1,5-a]pyridin-3-yl]benzenesulfonamide]
8 | 6760 nM | 1 nM | NS(=O)(=O)c1ccc(-c2c(-c3cccc(F)c3)nn3cc(Cl)ccc23)cc1 [Example 7, 4-[6-Chloro-2-(3-fluorophenyl)pyrazolo[1,5-a]pyridin-3-yl]benzenesulfonamide]
